Results published in ChEMBL document CHEMBL4406848, “Novel water soluble BODIPY compounds: Synthesis, photochemical, DNA interaction, topoisomerases inhibition and photodynamic activity properties” (Eur J Med Chem, 2019).
The source made the active and inactive calls. The rule behind the calls is not given here.

Experiments:
[1] = target: T1, DNA topoisomerase II (Homo sapiens) (UniProt P11388+Q02880); experiment: Inhibition of recombinant human topoisomerase 2 assessed as supercoiled DNA at 12.5 uM incubated for 1 hr by ethidium bromide staining based agarose gel electrophoresis method relative to control; type: protein assay; parameters: scale not given: the % may be the effect or the level left
[2] = Induction of singlet oxygen generation in TBS solution assessed as singlet oxygen quantum yield by measuring reduction in ADMA irradiated with 650 nanometer laser light; type: functional
[3] = target: T1, DNA topoisomerase II (Homo sapiens); experiment: Inhibition of recombinant human topoisomerase 2 at 25 uM incubated for 1 hr by ethidium bromide staining based agarose gel electrophoresis method relative to control; type: protein assay
[4] = target: T2, DNA topoisomerase 1 (Homo sapiens) (UniProt P11387); experiment: Inhibition of recombinant human topoisomerase 1 assessed as supercoiled pBR322 DNA at 25 uM incubated for 1 hr by ethidium bromide staining based agarose gel electrophoresis method relative to control; parameters: scale not given: the % may be the effect or the level left
T2 sequence (whole entry): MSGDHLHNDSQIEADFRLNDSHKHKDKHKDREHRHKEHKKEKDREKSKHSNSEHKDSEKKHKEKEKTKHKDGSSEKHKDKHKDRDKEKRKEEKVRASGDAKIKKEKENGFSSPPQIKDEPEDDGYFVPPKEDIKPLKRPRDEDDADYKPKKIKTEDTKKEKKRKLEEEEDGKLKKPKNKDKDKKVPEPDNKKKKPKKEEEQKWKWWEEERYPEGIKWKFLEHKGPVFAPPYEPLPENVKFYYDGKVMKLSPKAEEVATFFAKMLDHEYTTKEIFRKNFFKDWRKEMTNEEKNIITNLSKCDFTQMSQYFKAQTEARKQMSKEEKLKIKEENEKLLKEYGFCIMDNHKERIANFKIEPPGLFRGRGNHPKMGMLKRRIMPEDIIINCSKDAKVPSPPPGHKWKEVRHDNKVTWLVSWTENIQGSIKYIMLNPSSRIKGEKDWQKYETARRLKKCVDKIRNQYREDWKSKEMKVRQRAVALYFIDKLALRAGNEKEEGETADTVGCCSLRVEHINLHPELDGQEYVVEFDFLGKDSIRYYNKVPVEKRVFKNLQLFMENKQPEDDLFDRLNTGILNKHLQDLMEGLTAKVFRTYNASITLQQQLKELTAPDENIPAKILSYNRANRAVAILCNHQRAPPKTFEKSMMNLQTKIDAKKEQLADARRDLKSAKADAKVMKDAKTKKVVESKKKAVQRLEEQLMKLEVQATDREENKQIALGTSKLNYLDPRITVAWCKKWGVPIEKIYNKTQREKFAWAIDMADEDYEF

HCT-116 [5] = experiment: Phototoxicity against human HCT116 cells assessed as cell viability at 1 uM incubated for 24 hrs under 17.5 mW/cm2 light irradiation by MTT assay relative to control; type: functional; conditions: HCT-116, light or radiation study, read-out: Activity
[6] = target: T2, DNA topoisomerase 1 (Homo sapiens); experiment: Inhibition of recombinant human topoisomerase 1 assessed as supercoiled pBR322 DNA at 50 uM incubated for 1 hr by ethidium bromide staining based agarose gel electrophoresis method relative to control; parameters: scale not given: the % may be the effect or the level left
DNA [7] = experiment: Induction of Escherichia coli plasmid pBR322 DNA cleavage assessed as increase in nicked circular DNA at 6.25 to 50 uM in presence of light irradiation and incubated for 1 hr by agarose gel electrophoresis; type: nucleic-acid assay
HCT-116 [8] = experiment: Induction of apoptosis in human HCT116 cells assessed as necrotic cells at 50 uM incubated for 24 hrs in presence of irradiation by annexin V FITC and propidium iodide based flow cytometry (reference value: 0.2 %); type: functional
HCT-116 [9] = experiment: Induction of apoptosis in human HCT116 cells assessed as late apoptotic cells at 50 uM incubated for 24 hrs in presence of irradiation by annexin V FITC and propidium iodide based flow cytometry (reference value: 1.6 %); type: functional
HCT-116 [10] = experiment: Induction of apoptosis in human HCT116 cells assessed as early apoptotic cells at 50 uM incubated for 24 hrs in presence of irradiation by annexin V FITC and propidium iodide based flow cytometry (reference value: 3.4 %); type: functional
HCT-116 [11] = experiment: Cytotoxicity against human HCT116 cells assessed as cell viability at 100 uM incubated for 24 hrs in dark by MTT assay relative to control; type: functional; conditions: HCT-116, 24 h, read-out: Activity
HCT-116 [12] = experiment: Cytotoxicity against human HCT116 cells assessed as cell viability at 50 uM incubated for 24 hrs in dark by MTT assay relative to control; type: functional; conditions: HCT-116, 24 h, read-out: Activity
HCT-116 [13] = experiment: Phototoxicity against human HCT116 cells assessed as cell viability at 0.5 uM incubated for 24 hrs under 17.5 mW/cm2 light irradiation by MTT assay relative to control; type: functional; conditions: HCT-116, light or radiation study, read-out: Activity
DNA [14] = experiment: Induction of Escherichia coli plasmid pBR322 DNA cleavage assessed as decrease in supercoiled DNA at 6.25 to 50 uM in presence of light irradiation and incubated for 1 hr by agarose gel electrophoresis relative to control; type: nucleic-acid assay; parameters: scale not given: the % may be the effect or the level left
DNA [15] = experiment: Induction of Escherichia coli plasmid pBR322 DNA cleavage assessed as increase in nicked circular DNA at 3.125 uM in presence of light irradiation and incubated for 1 hr by agarose gel electrophoresis relative to control; type: nucleic-acid assay
HCT-116 [16] = experiment: Induction of apoptosis in human HCT116 cells assessed as viable cells at 50 uM incubated for 24 hrs in presence of irradiation by annexin V FITC and propidium iodide based flow cytometry (reference value: 94.8 %); type: functional; conditions: HCT-116, light or radiation study, read-out: Activity
HCT-116 [17] = experiment: Induction of apoptosis in human HCT116 cells assessed as early apoptotic cells at 5 uM incubated for 24 hrs in presence of irradiation by annexin V FITC and propidium iodide based flow cytometry (reference value: 3.4 %); type: functional
HCT-116 [18] = experiment: Induction of apoptosis in human HCT116 cells assessed as necrotic cells at 5 uM incubated for 24 hrs in presence of irradiation by annexin V FITC and propidium iodide based flow cytometry (reference value: 0.2 %); type: functional
Calf thymus DNA = experiment: Competitive binding affinity to calf thymus DNA assessed as binding constant in presence of ethidium bromide incubated for 10 mins by UV-visible spectrophotometry; type: nucleic-acid assay; conditions: Bos taurus
[19] = target: T2, DNA topoisomerase 1 (Homo sapiens); experiment: Inhibition of recombinant human topoisomerase 1 assessed as linear DNA at 50 uM incubated for 1 hr by ethidium bromide staining based agarose gel electrophoresis method relative to control
DNA [20] = experiment: Induction of Escherichia coli plasmid pBR322 DNA cleavage assessed as increase in nicked circular DNA in presence of light irradiation and incubated for 1 hr by agarose gel electrophoresis; type: nucleic-acid assay
HCT-116 [21] = experiment: Induction of apoptosis in human HCT116 cells assessed as late apoptotic cells at 5 uM incubated for 24 hrs in presence of irradiation by annexin V FITC and propidium iodide based flow cytometry (reference value: 1.6 %); type: functional
DNA [22] = experiment: Induction of Escherichia coli plasmid pBR322 DNA cleavage assessed as increase in nicked circular DNA at 50 uM in presence of light irradiation and incubated for 1 hr by agarose gel electrophoresis; type: nucleic-acid assay
DNA [23] = experiment: Induction of Escherichia coli plasmid pBR322 DNA cleavage assessed as decrease in supercoiled DNA at 50 uM in presence of light irradiation and incubated for 1 hr by agarose gel electrophoresis; type: nucleic-acid assay
HCT-116 [24] = experiment: Induction of apoptosis in human HCT116 cells assessed as viable cells at 5 uM incubated for 24 hrs in presence of irradiation by annexin V FITC and propidium iodide based flow cytometry (reference value: 94.8 %); type: functional; conditions: HCT-116, light or radiation study, read-out: Activity

CC1=CC(/C=C/c2ccc(OCCCc3ccc[n+](C)c3)c(OCCCc3ccc[n+](C)c3)c2)=[N+]2C1=C(c1ccc(OCCCc3ccc[n+](C)c3)c(OCCCc3ccc[n+](C)c3)c1)c1c(C)cc(/C=C/c3ccc(OCCCc4ccc[n+](C)c4)c(OCCCc4ccc[n+](C)c4)c3)n1[B-]2(F)F.[I-].[I-].[I-].[I-].[I-].[I-]
Activity [1]: 77.5% | Activity [2]: 0.3 | inhibition [3]: 58.7% | Activity [4]: 66% | viability at 1 µM (HCT-116 [5]): 100% | Activity [6]: 69.5% | Activity (DNA [7]): Active | Activity (HCT-116 [8]): 0.2% | Activity (HCT-116 [9]): 1.4% | Activity (HCT-116 [10]): 4.8% | viability at 100 µM (HCT-116 [11]): 90% | viability at 50 µM (HCT-116 [12]): 100% | viability at 0.5 µM (HCT-116 [13]): 100% | Activity (DNA [14]): 100% | Activity (DNA [15]): 41.5% | viability at 50 µM (HCT-116 [16]): 93.7%

CC1=CC(/C=C/c2ccc(OCCCc3ccc[n+](C)c3)cc2)=[N+]2C1=C(c1ccc(OCCCc3ccc[n+](C)c3)cc1)c1c(C)cc(/C=C/c3ccc(OCCCc4ccc[n+](C)c4)cc3)n1[B-]2(F)F.[I-].[I-].[I-]
Activity (HCT-116 [17]): 35.8% | Activity (HCT-116 [18]): 10.7% | Activity [2]: 0.21 | Activity (Calf thymus DNA): inactive | inhibition [3]: 54.6% | viability at 1 µM (HCT-116 [5]): 97% | inhibition [19]: 100% | Activity (DNA [20]): Dose-dependent effect | Activity (HCT-116 [21]): 30.5% | Activity (DNA [22]): inactive | Activity (DNA [23]): inactive | viability at 100 µM (HCT-116 [11]): 57% | viability at 50 µM (HCT-116 [12]): 67% | viability at 0.5 µM (HCT-116 [13]): 100% | viability at 5 µM (HCT-116 [24]): 23%
